Compound: C1=CC2=C(C=C(C(=C2N=C1)O)N=NC3=CC4=C(C=C3)C=C(C=C4)S(=O)(=O)O)S(=O)(=O)O + COc1cccc2cc(-c3nc([C@H]4CC[C@H](C(=O)O)CC4)n4ncnc(N)c34)[nH]c12 [OSI-027] (partner 0.5 µM)
Assay: relative viability (nuclei count vs DMSO), 5 days (fraction); higher = more cells survive
Settings: first compound 0.08 µM
In short: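 Medians of duplicate plates are given as relative viability. That measure is the nuclei count in treated wells divided by the count in vehicle wells. Counts were taken on 4× images of lung cancer cell lines in 1536-well plates, 5 days after pin-tool dosing the day after seeding with one drug alone or a fixed anchor-drug dose plus five library-drug doses (not always all listed) in √10 steps.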

Row | Cell Line | relative viability
1 | NCI-H322M | 0.651
2 | LCLC-97TM1 | 0.535
3 | NCI-H2009 | 0.574
4 | A-427 | 0.402
5 | NCI-H441 | 0.504
6 | NCI-H661 | 0.789
7 | NCI-H1734 | 0.632
8 | NCI-H460 | 0.777
9 | NCI-H2347 | 0.505
10 | SK-LU-1 | 0.424
11 | NCI-H1395 | 0.639
12 | 201T | 0.804
13 | NCI-H1915 | 0.59
14 | HCC-827 | 0.804
15 | LXF-289 | 0.84
16 | NCI-H23 | 0.619
17 | NCI-H647 | 0.68

Row | Cell Line | relative viability
18 | CAL-12T | 0.592
19 | NCI-H1651 | 0.631
20 | EPLC-272H | 0.298
21 | NCI-H2228 | 0.765
22 | NCI-H1792 | 0.866
23 | NCI-H1355 | 0.386
24 | NCI-H3122 | 1.09
25 | NCI-H1437 | 0.93
26 | NCI-H1755 | 0.705
27 | NCI-H2023 | 0.434
28 | HCC-15 | 0.75
29 | NCI-H1793 | 0.285
30 | PC-14 | 1.16
31 | EKVX | 0.691
32 | LC-2-ad | 0.936
33 | NCI-H1944 | 0.411
34 | NCI-H1975 | 0.784

Same assay, conditions: first compound 0.253 µM

Row | Cell Line | relative viability
35 | NCI-H322M | 0.501
36 | LCLC-97TM1 | 0.432
37 | NCI-H2009 | 0.6
38 | A-427 | 0.447
39 | NCI-H441 | 0.638
40 | NCI-H661 | 0.736
41 | NCI-H1734 | 0.602
42 | NCI-H460 | 0.71
43 | NCI-H2347 | 0.532
44 | SK-LU-1 | 0.366
45 | NCI-H1395 | 0.663
46 | 201T | 0.687
47 | NCI-H1915 | 0.667
48 | HCC-827 | 0.764
49 | LXF-289 | 0.733
50 | NCI-H23 | 0.585
51 | NCI-H647 | 0.636

Row | Cell Line | relative viability
52 | CAL-12T | 0.585
53 | NCI-H1651 | 0.661
54 | EPLC-272H | 0.258
55 | NCI-H2228 | 0.688
56 | NCI-H1792 | 0.669
57 | NCI-H1355 | 0.46
58 | NCI-H3122 | 0.919
59 | NCI-H1437 | 0.899
60 | NCI-H1755 | 0.74
61 | NCI-H2023 | 0.431
62 | HCC-15 | 0.675
63 | NCI-H1793 | 0.289
64 | PC-14 | 0.861
65 | EKVX | 0.682
66 | LC-2-ad | 0.855
67 | NCI-H1944 | 0.423
68 | NCI-H1975 | 0.721

Same assay, conditions: first compound 0.8 µM

Row | Cell Line | relative viability
69 | NCI-H322M | 0.513
70 | LCLC-97TM1 | 0.496
71 | NCI-H2009 | 0.645
72 | A-427 | 0.45
73 | NCI-H441 | 0.461
74 | NCI-H661 | 0.703
75 | NCI-H1734 | 0.573
76 | NCI-H460 | 0.654
77 | NCI-H2347 | 0.5
78 | SK-LU-1 | 0.38
79 | NCI-H1395 | 0.631
80 | 201T | 0.684
81 | NCI-H1915 | 0.649
82 | HCC-827 | 0.754
83 | LXF-289 | 0.745
84 | NCI-H23 | 0.637
85 | NCI-H647 | 0.603

Row | Cell Line | relative viability
86 | CAL-12T | 0.577
87 | NCI-H1651 | 0.668
88 | EPLC-272H | 0.258
89 | NCI-H2228 | 0.653
90 | NCI-H1792 | 0.726
91 | NCI-H1355 | 0.423
92 | NCI-H3122 | 0.899
93 | NCI-H1437 | 0.889
94 | NCI-H1755 | 0.786
95 | NCI-H2023 | 0.454
96 | HCC-15 | 0.627
97 | NCI-H1793 | 0.246
98 | PC-14 | 0.819
99 | EKVX | 0.684
100 | LC-2-ad | 0.626
101 | NCI-H1944 | 0.414
102 | NCI-H1975 | 0.767

Same assay, conditions: first compound 2.53 µM

Row | Cell Line | relative viability
103 | NCI-H322M | 0.586
104 | LCLC-97TM1 | 0.474
105 | NCI-H2009 | 0.642
106 | A-427 | 0.41
107 | NCI-H441 | 0.66
108 | NCI-H661 | 0.683
109 | NCI-H1734 | 0.586
110 | NCI-H460 | 0.647
111 | NCI-H2347 | 0.341
112 | SK-LU-1 | 0.338
113 | NCI-H1395 | 0.632
114 | 201T | 0.761
115 | NCI-H1915 | 0.634
116 | HCC-827 | 0.798
117 | LXF-289 | 0.809
118 | NCI-H23 | 0.654
119 | NCI-H647 | 0.75

Row | Cell Line | relative viability
120 | CAL-12T | 0.819
121 | NCI-H1651 | 0.75
122 | EPLC-272H | 0.283
123 | NCI-H2228 | 0.57
124 | NCI-H1792 | 0.689
125 | NCI-H1355 | 0.459
126 | NCI-H3122 | 0.856
127 | NCI-H1437 | 0.961
128 | NCI-H1755 | 0.689
129 | NCI-H2023 | 0.367
130 | HCC-15 | 0.63
131 | NCI-H1793 | 0.264
132 | PC-14 | 0.833
133 | EKVX | 0.721
134 | LC-2-ad | 0.906
135 | NCI-H1944 | 0.415
136 | NCI-H1975 | 0.68

Same assay, conditions: first compound 8 µM

Row | Cell Line | relative viability
137 | NCI-H322M | 0.509
138 | LCLC-97TM1 | 0.515
139 | NCI-H2009 | 0.71
140 | A-427 | 0.5
141 | NCI-H441 | 0.588
142 | NCI-H661 | 0.687
143 | NCI-H1734 | 0.349
144 | NCI-H460 | 0.576
145 | NCI-H2347 | 0.392
146 | SK-LU-1 | 0.354
147 | NCI-H1395 | 0.657
148 | 201T | 0.735
149 | NCI-H1915 | 0.628
150 | HCC-827 | 0.843
151 | LXF-289 | 0.788
152 | NCI-H23 | 0.603
153 | NCI-H647 | 0.73
154 | CAL-12T | 0.831
155 | NCI-H1651 | 0.743
156 | EPLC-272H | 0.294
157 | NCI-H2228 | 0.592
158 | NCI-H1792 | 0.629
159 | NCI-H1355 | 0.452
160 | NCI-H3122 | 0.922
161 | NCI-H1437 | 0.813

From the supplement of paper PMC10307832
